Data: patent US11420970B1 (NOVARTIS AG, priority 2019, dated 2022)

Legend:
[1] = system: cellular H3K36me2 level in multiple myeloma cell line KMS11 (t(4;14)+); experiment: H3K36me2 cellular ELISA assay in KMS11-Par line; type: cell-based; conditions: Homo sapiens, read-out: H3K36me2 ELISA in KMS11-Par
Summary of the method: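 After 72 h compound exposure, HCl-extracted histones from KMS11 (t(4;14)+) cells were probed by ELISA for H3K36me2 against total H3 with a chemiluminescence read-out. Cells were plated at 1,250/well in Opti-MEM plus B-27 and N2 the day before. A parallel CellTiter-Glo plate tracked viability.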

[2] = system: cellular H3K36me2 level in thyroid carcinoma cell line CGTH-W-1 (NSD2 E1099K); experiment: H3K36me2 cellular ELISA assay in CGTH-W-1 line; type: cell-based; conditions: Homo sapiens, CGTH-W-1, 72 h, read-out: H3K36me2 ELISA in CGTH-W-1
Summary of the method: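 After 72 h compound treatment of NSD2 E1099K-mutant CGTH-W-1 cells, H3K36me2 and total H3 were quantified by ELISA with chemiluminescent read-out. A parallel-seeded plate gave cell viability by CellTiter-Glo.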

NSD2 [1-1365] = NSD2 [1-1365] (Homo sapiens (Human), UniProt O96028); experiment: LC-MS/MS-based NSD2 enzymatic assay (SAH production); type: biochemical; conditions: NSD2 biochemical activity, class symbols; read-out: NSD2 IC50
NSD2 [1-1365], sequence (O96028 whole entry): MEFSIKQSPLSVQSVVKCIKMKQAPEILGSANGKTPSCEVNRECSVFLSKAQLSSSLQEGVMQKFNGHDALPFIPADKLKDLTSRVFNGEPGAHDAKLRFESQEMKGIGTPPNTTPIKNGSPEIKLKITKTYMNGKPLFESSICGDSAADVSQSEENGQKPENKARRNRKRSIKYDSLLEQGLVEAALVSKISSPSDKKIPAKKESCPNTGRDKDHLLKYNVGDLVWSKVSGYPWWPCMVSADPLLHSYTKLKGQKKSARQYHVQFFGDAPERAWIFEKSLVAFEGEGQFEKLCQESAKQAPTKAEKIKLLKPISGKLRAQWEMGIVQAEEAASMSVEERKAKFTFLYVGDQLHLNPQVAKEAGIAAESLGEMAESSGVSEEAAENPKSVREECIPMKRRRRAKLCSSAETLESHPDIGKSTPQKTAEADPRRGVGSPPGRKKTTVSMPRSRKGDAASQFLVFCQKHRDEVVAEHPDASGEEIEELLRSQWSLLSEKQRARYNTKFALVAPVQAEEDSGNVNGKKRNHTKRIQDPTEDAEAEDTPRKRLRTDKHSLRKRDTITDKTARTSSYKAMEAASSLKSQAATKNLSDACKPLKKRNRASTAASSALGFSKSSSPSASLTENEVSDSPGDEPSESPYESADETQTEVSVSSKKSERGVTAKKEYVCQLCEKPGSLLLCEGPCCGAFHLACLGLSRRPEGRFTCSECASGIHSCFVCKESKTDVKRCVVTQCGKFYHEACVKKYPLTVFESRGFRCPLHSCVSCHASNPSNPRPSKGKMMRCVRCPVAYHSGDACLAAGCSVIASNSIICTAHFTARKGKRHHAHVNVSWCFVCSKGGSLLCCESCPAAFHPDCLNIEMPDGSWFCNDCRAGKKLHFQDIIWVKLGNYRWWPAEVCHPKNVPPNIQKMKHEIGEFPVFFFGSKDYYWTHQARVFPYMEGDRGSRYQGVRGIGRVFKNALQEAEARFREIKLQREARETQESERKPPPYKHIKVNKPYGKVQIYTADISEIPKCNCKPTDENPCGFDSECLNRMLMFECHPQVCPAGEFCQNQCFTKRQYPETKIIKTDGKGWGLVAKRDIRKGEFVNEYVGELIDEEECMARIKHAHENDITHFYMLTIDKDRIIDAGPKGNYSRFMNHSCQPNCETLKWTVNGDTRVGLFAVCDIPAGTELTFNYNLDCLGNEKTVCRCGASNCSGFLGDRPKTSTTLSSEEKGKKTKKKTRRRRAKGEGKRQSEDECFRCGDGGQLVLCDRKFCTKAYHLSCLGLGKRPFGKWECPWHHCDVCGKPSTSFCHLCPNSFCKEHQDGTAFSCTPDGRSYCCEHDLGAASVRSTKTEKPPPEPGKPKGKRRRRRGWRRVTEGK
Summary of the method: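 SAH formed was measured by LC-MS/MS using d4-SAH as internal standard and an SAH calibration curve. Compounds were preincubated 20 min with NSD2 [1-1365] and SAM; mouse-liver nucleosome then started a 90 min room-temperature reaction (8 nM enzyme, 1 μM SAM, 400 nM nucleosome final, pH 8.0), stopped with TFA.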

[3] = system: cellular H3K36me2 level in multiple myeloma cell line KMS11 (t(4;14)+); experiment: H3K36me2 cellular FRET assay in KMS11-Par line; type: cell-based; conditions: Homo sapiens
[4] = KMS-11, KMS11-Par line (t(4;14)+), 72 hours treatment, ELISA
[5] = KMS-11, KMS11-Par line, cellular H3K36me2 level, FRET, read-out: H3K36me2 FRET in KMS11-Par

SMILES	IC50 [1, 4] [µM]	IC50 [2] [µM]	IC50 (NSD2 [1-1365]) [µM]	IC50 [3, 5] [µM]	IC50 ([1]; KMS-11, 72 h) [µM]	IC50 ([3]; KMS-11, read-out: H3K36me2 FRET in KMS11-Par) [µM]
COc1ccc(-c2cc(Cn3cnc4c(N)ncnc43)c(N3CCC[C@](N)(COC(F)F)C3)cn2)cc1F [Example 42, (R)-9-((5-(3-amino-3-((difluoromethoxy)methyl)piperidin-1-yl)-2-(3-fluoro-4-methoxyphenyl)pyridin-4-yl)methyl)-9H-purin-6-amine]	10.7	0.789	0.01 to 1	1.23		
CO[C@@H](C)[C@@]1(N)CCCN(c2cnc(-c3ccc(F)c(F)c3)cc2Cn2cnc3c(N)ncnc32)C1 [Example 95, 9-((5-((R)-3-amino-3-((S)-1-methoxyethyl)piperidin-1-yl)-2-(3,4-difluorophenyl)pyridin-4-yl)methyl)-9H-purin-6-amine]	3.03	1.65	0.01 to 1	1.82		
Nc1ncnc2c1ncn2Cc1cc(-c2ccc(F)c(F)c2)ncc1N1CCC[C@](N)(CC(F)F)C1 [Example 47, (S)-9-((5-(3-amino-3-(2,2-difluoroethyl)piperidin-1-yl)-2-(3,4-difluorophenyl)pyridin-4-yl)methyl)-9H-purin-6-amine]	1.54	0.377	0.01 to 1	1.18		
COc1ccc(-c2cc(Cn3cnc4c(N)ncnc43)c(N3CCC[C@](N)([C@H](C)OC)C3)cn2)cc1F [Example 93, 9-((5-((R)-3-amino-3-((S)-1-methoxyethyl)piperidin-1-yl)-2-(3-fluoro-4-methoxyphenyl)pyridin-4-yl)methyl)-9H-purin-6-amine]	3.97	3.21	0.01 to 1	1.39		
Nc1ncnc2c1ncn2Cc1cc(-c2ccc(F)c(F)c2)ncc1N1CCC[C@](N)(Cc2ncco2)C1 [Example 52, (S)-9-((5-(3-amino-3-(oxazol-2-ylmethyl)piperidin-1-yl)-2-(3,4-difluorophenyl)pyridin-4-yl)methyl)-9H-purin-6-amine]	1.32	0.541	0.001 to 0.01	1.2		
COc1ccc(-c2cc(Cn3cnc4c(N)ncnc43)c(N3CCC[C@](N)(COC4CCC4)C3)cn2)cc1F [Example 32, (R)-9-((5-(3-amino-3-(cyclobutoxymethyl)piperidin-1-yl)-2-(3-fluoro-4-methoxyphenyl)pyridin-4-yl)methyl)-9H-purin-6-amine]	0.728	0.196	0.001 to 0.01	0.27		
COc1ccc(-c2cc(Cn3cnc4c(N)ncnc43)c(N3CCC[C@](N)([C@@H](C)OC)C3)cn2)cc1F [Example 94, 9-((5-((R)-3-amino-3-((R)-1-methoxyethyl)piperidin-1-yl)-2-(3-fluoro-4-methoxyphenyl)pyridin-4-yl)methyl)-9H-purin-6-amine]	1.2	1.09	0.01 to 1	3.04		
COc1ccc(-c2cc(Cn3cnc4c(N)ncnc43)c(N3CCC[C@](N)(CC(F)F)C3)cn2)cc1F [Example 61, (S)-9-((5-(3-amino-3-(2,2-difluoroethyl)piperidin-1-yl)-2-(3-fluoro-4-methoxyphenyl)pyridin-4-yl)methyl)-9H-purin-6-amine]		0.643	0.01 to 1	1.42		
Nc1ncnc2c1ncn2Cc1cc(-c2ccc(F)c(F)c2)ncc1N1CCC[C@](N)(COC2CCC2)C1 [Example 30, (R)-9-((5-(3-amino-3-(cyclobutoxymethyl)piperidin-1-yl)-2-(3,4-difluorophenyl)pyridin-4-yl)methyl)-9H-purin-6-amine]	2.03	0.659	0.001 to 0.01	0.569		
CO[C@H](C)[C@@]1(N)CCCN(c2cnc(-c3ccc(F)c(F)c3)cc2Cn2cnc3c(N)ncnc32)C1 [Example 97, 9-((5-((R)-3-amino-3-((R)-1-methoxyethyl)piperidin-1-yl)-2-(3,4-difluorophenyl)pyridin-4-yl)methyl)-9H-purin-6-amine]	1.24	1.16	0.01 to 1	1.5		
COc1ccc(-c2cc(Cn3cnc4c(N)ncnc43)c(N3CCC[C@@H](N)C3)cn2)cc1F [Example 1, (R)-9-((5-(3-aminopiperidin-1-yl)-2-(3-fluoro-4-methoxyphenyl)pyridin-4-yl)methyl)-9H-purin-6-amine]		0.75	0.01 to 1		4.09	3.03
COc1ccc(-c2cc(Cn3cnc4c(N)ncnc43)c(N3CC[C@@H](F)[C@@H](N)C3)cn2)cc1F [Example 5, 9-((5-((3S,4R)-3-amino-4-fluoropiperidin-1-yl)-2-(3-fluoro-4-methoxyphenyl)pyridin-4-yl)methyl)-9H-purin-6-amine]		1.77	0.01 to 1	6.46		
